In patent publication US20260055154A1, “LONG-ACTING DUAL-AGONIST COMPOUND” (CHENGDU AODA BIOTECHNOLOGY CO., LTD, priority 2022, published 2026):
Like-named read-outs stand apart in the source and are kept apart here. Starred links: 1 amine or outer side, 2 acyl side, 3 side chain; linkers in the order of their positions; H or OH if unused. Non-standard residues stand in square brackets, D forms with d. Residues, ends and D or L forms follow the SMILES beside them. Groups on a side chain read outwards from the residue. No end group written: not given here. *: point of attachment. X1 = O=C(O)CCCCCCCCCCCCCCCCCCC(=O)N[C@@H](CCC(=O)NCCOCCOCCOCCOCCOCC(=O)*)C(=O)O; C20 diacid = O=C(O)CCCCCCCCCCCCCCCCCCC(=O)*; γGlu = O=C(O)[C@H](CCC(=O)[*:2])N[*:1]; AEEA = NCCOCCOCC(=O)O; Aib = CC(C)(N)C(=O)O

Assays:
in vivo [1] = details: human
GLP-1R = target: T1, GLP-1R (Homo sapiens, UniProt P43220); test: Determination of GLP-1 activity (cAMP, chemiluminescence, stable cell line); assay type: cell-based; details: CHO-K1 cell line stably expressing GLP-1R; OXM3 as reference substance
T1 construct: expressed in transfected cells; host or cells: CHO-K1
T1 sequence (P43220 24-463, species assumed): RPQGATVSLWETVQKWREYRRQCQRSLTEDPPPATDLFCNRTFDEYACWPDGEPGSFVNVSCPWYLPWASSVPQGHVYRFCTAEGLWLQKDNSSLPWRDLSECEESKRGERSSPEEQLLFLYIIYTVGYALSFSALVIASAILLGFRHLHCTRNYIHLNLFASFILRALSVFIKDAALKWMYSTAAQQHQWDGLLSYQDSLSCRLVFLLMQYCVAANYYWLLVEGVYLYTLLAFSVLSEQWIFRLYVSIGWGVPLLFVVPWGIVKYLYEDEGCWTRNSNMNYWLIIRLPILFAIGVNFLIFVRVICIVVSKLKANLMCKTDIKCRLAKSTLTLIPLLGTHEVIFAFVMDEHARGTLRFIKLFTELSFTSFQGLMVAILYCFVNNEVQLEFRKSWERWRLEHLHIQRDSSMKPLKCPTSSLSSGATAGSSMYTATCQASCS
Protocol: (§1) GLP-1R activates the intracellular adenylate cyclase pathway under the stimulation of its specific agonist, to increase the cAMP level and ultimately lead to the production and release of insulin. The stable cell line expressing GLP-1R was stimulated by the test substance to rapidly increase the intracellular cAMP level. The relative light units (RLU) in the cells after stimulation by each dose of the test substance were determined by the chemiluminescence method, and then the EC50 of the agonist was calculated. This activity determination method is currently a common determination method for GLP-1 receptor agonist activity at home and abroad.
A CHO-K1 cell line that stably expresses GLP-IR was adopted, and the cells were stimulated with different concentrations of agonists. The relative light units after stimulation of the cells by each dose of agonists were measured. Using OXM3 as a reference substance, the relative biological activity of each agonist was obtained.

in vivo [2] = test: in vivo; parameters: species or system cynomolgus monkeys; details: male, cynomolgus monkey, sc, 0.2 mg/kg
Protocol: The experimental animals were cynomolgus monkeys, and two male cynomolgus monkeys in each group were subcutaneously administrated the compound at a dose of 0.2 mg/kg. The venous blood samples were collected before drug administration (0 h), and 1 h, 2 h, 3 h, 4 h, 8 h, 12 h, 18 h, 24 h, 48 h, 96 h, 144 h and 168 h after administration, respectively. The plasma samples were separated by centrifugation. The blood drug concentrations of the corresponding compounds in the plasma samples were determined by liquid chromatography-mass spectrometry.

GcgR = target: T2, GcgR (Homo sapiens, UniProt P47871); test: Gcg activity determination (cAMP, chemiluminescence, stable cell line); assay type: cell-based; details: CHO-K1 cell line stably expressing GcgR; OXM3 as reference
T2 construct: expressed in transfected cells; host or cells: CHO-K1
T2 sequence (P47871 26-477, species assumed): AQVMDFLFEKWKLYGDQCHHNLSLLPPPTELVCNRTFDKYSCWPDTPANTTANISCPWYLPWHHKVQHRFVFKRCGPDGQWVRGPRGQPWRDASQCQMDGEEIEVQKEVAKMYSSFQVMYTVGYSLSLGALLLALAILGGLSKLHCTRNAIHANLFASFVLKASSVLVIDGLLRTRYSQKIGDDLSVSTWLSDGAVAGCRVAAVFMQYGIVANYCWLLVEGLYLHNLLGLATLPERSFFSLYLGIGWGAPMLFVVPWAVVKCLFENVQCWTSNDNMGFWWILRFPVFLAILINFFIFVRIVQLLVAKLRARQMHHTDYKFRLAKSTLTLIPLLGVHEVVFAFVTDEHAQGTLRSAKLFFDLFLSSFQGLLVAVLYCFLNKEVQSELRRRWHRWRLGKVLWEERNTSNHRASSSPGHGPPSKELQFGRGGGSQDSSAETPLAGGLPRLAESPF
Protocol: as §1, with “GcgR activates” for “GLP-1R activates”, “The stably” for “The stable”, “expressing GcgR” for “expressing GLP-1R”, “after the” for “after”, “of agonists” for “of the test substance”, “for Geg” for “for GLP-1”
A CHO-K1 cell line stably expressing GcgR was adopted. The cells were stimulated with different concentrations of agonists, and the relative light units (RLU) after the stimulation of cells by each dose of agonists were determined. Using OXM3 as a reference, the relative biological activity of the agonist was obtained.

[3] = human, in vivo; cited from earlier work

Molecule	half-life (in vivo [1]) [days]	Relative biological activity (GLP-1R) [%]	half-life (in vivo [2]) [days]	Biological activity (%) (GcgR)	half-life [3] [h]
CC(C)C[C@H](NC(=O)[C@H](CC(C)C)NC(=O)[C@H](Cc1c[nH]c2ccccc12)NC(=O)[C@H](CCC(=O)O)NC(=O)[C@@H](NC(=O)[C@H](Cc1ccccc1)NC(=O)[C@H](CCC(=O)O)NC(=O)[C@H](CCCCNC(=O)COCCOCCOCCOCCOCCNC(=O)CC[C@H](NC(=O)CCCCCCCCCCCCCCCCCCC(=O)O)C(=O)O)NC(=O)[C@H](C)NC(=O)[C@H](CCCCN)NC(=O)[C@H](CCCCN)NC(=O)[C@H](CCC(=O)O)NC(=O)[C@H](CC(=O)O)NC(=O)[C@H](CC(C)C)NC(=O)[C@H](Cc1ccc(O)cc1)NC(=O)[C@H](CCCCN)NC(=O)[C@H](CO)NC(=O)[C@H](Cc1ccc(O)cc1)NC(=O)[C@H](CC(=O)O)NC(=O)[C@H](CO)NC(=O)[C@@H](NC(=O)[C@H](Cc1ccccc1)NC(=O)[C@@H](NC(=O)CNC(=O)[C@H](CCC(N)=O)NC(=O)C(C)(C)NC(=O)[C@@H](N)Cc1c[nH]cn1)[C@@H](C)O)[C@@H](C)O)C(C)C)C(=O)N[C@@H](CCC(=O)O)C(=O)NCC(=O)NCC(=O)N1CCC[C@H]1C(=O)N[C@@H](CO)C(=O)N[C@@H](CO)C(=O)NCC(=O)N[C@@H](C)C(=O)N1CCC[C@H]1C(=O)N1CCC[C@H]1C(=O)N1CCC[C@H]1C(=O)N[C@@H](CO)C(N)=O [Compound 2, His-Aib-Gln-Gly-Thr-Phe-Thr-Ser-Asp-Tyr-Ser-Lys-Tyr-Leu-Asp-Glu-Lys-Lys-Ala-Lys(PEG5CH2CO-γGlu-eicosanedioic acid)-Glu-Phe-Val-Glu-Trp-Leu-Leu-Glu-Gly-Gly-Pro-Ser-Ser-Gly-Ala-Pro-Pro-Pro-Ser-NH2] (H-H[Aib]QGTFTSDYSKYLDEKKAK(X1)EFVEWLLEGGPSSGAPPPS-NH2)	~11.7	259.9	5.84	86.9	
His-Aib-Gln-Gly-Thr-Phe-Thr-Ser-Asp-Tyr-Ser-Lys-Tyr-Leu-Asp-Glu-Lys-Lys-Ala-Lys(AEEA-AEEA-γGlu-eicosanedioic acid)-Glu-Phe-Val-Glu-Trp-Leu-Leu-Glu-Gly-Gly-Pro-Ser-Ser-Gly-NH2 (H[Aib]QGTFTSDYSKYLDEKKAK([AEEA-AEEA-γGlu-C20 diacid])EFVEWLLEGGPSSG-NH2) [OXM3]					120
